Assay results as given in US6620815B1, “Oxazolidinones and uses thereof” (Synaptic Pharmaceutical Corporation, priority 1997, dated 2003).
Counter-ions that a name gives are not always drawn.

Experiments:
[1] = biological target: T1, cloned human α1D receptor (Homo sapiens, UniProt P25100); assay: Radioligand binding assay, [3H] prazosin displacement, cloned human α1D receptor; settings: [3H] prazosin 0.5 nM, membrane preparations of transfected LM(tk-) cells; read-out: hα1D Ki
T1 sequence (P25100 1-572): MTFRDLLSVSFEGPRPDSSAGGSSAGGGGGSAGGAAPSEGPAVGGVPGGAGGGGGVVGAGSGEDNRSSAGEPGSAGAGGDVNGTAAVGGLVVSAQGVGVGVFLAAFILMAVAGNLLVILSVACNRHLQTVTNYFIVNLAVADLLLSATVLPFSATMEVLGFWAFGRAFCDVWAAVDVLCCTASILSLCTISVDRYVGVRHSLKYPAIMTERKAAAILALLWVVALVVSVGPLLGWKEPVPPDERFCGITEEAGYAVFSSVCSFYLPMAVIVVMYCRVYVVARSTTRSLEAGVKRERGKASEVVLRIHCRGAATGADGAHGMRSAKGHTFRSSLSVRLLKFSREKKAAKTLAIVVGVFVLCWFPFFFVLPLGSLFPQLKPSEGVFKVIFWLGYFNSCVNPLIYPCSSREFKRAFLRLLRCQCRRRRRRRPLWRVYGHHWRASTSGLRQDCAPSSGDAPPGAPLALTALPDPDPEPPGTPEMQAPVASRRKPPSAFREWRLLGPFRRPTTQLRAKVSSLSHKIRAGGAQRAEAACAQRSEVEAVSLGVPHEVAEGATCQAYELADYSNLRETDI
Experimental: (§1) These cell lines were prepared by transfecting the cloned cDNA or cloned genomic DNA or constructs containing both genomic DNA and cDNA encoding the human α-adrenergic receptors as follows:
The cells were grown, in a controlled environment (37° C., 5% CO2), as monolayers in Dulbecco's modified Eagle's Medium (GIBCO, Grand Island, N.Y.) containing 25 mM glucose and supplemented with 10% bovine calf serum, 100 units/ml penicillin g, and 100 μg/ml streptomycin sulfate.
(§2) Transfected cells from culture flasks were scraped into 5 ml of 5 mM Tris-HCl, 5 mM EDTA, pH 7.5, and lysed by sonication. The cell lysates were centrifuged at 1000 rpm for 5 min at 4° C., and the supernatant was centrifuged at 30,000×g for 20 min at 4° C. The pellet was suspended in 50 mM Tris-HCl, 1 mM MgCl2, and 0.1% ascorbic acid at pH 7.5. Binding of the α1 antagonist [^3H] prazosin (0.5 nM, specific activity 76.2 Ci/mmol) to membrane preparations of LM(tk−) cells was done in a final volume of 0.25 ml and incubated at 37° C. for 20 min. Nonspecific binding was determined in the presence of 10 μM phentolamine. The reaction was stopped by filtration through GF/B filters using a cell harvester.

[2] = biological target: T2, cloned human α1A receptor (Homo sapiens, UniProt P35348); assay: Radioligand binding assay, [3H] prazosin displacement, cloned human α1A receptor; settings: [3H] prazosin 0.5 nM, membrane preparations of transfected LM(tk-) cells; read-out: hα1A Ki
T2 sequence (P35348 1-466): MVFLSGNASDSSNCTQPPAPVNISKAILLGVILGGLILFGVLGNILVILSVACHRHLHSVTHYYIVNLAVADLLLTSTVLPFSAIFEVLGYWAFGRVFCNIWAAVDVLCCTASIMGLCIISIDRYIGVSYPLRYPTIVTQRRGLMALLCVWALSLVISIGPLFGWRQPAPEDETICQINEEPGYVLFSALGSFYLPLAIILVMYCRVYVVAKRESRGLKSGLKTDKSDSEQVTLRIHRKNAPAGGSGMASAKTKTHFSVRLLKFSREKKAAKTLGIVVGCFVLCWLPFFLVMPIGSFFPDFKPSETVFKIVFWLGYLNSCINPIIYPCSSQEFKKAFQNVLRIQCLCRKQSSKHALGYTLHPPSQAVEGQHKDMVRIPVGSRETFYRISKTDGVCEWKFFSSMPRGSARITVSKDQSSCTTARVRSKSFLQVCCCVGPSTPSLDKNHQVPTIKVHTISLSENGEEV
Experimental: as §1
The construct involved ligating three partial overlapping fragments: a 5′ 0.6 kb HincII genomic clone, a central 1.8 EcoRI hippocampal cDNA clone, and a 3′ 0.6 Kb PstI genomic clone. The hippocampal cDNA fragment overlaps with the 5′ and 3′ genomic clones so that the HincII and PstI sites at the 5′ and 3′ ends of the cDNA clone, respectively, were utilized for ligation. This full-length clone was cloned into the KpnI site of the expression vector, using the 5′ and 3′ KpnI sites of the fragment, derived from vector (i.e., pBluescript) and 3′-untranslated sequences, respectively. Stable cell lines were selected as described above.
as §2

[3] = biological target: T3, cloned human α1B receptor (Homo sapiens, UniProt P35368); assay: Radioligand binding assay, [3H] prazosin displacement, cloned human α1B receptor; settings: [3H] prazosin 0.5 nM, membrane preparations of transfected LM(tk-) cells; read-out: hα1B Ki
T3 sequence (P35368 1-520): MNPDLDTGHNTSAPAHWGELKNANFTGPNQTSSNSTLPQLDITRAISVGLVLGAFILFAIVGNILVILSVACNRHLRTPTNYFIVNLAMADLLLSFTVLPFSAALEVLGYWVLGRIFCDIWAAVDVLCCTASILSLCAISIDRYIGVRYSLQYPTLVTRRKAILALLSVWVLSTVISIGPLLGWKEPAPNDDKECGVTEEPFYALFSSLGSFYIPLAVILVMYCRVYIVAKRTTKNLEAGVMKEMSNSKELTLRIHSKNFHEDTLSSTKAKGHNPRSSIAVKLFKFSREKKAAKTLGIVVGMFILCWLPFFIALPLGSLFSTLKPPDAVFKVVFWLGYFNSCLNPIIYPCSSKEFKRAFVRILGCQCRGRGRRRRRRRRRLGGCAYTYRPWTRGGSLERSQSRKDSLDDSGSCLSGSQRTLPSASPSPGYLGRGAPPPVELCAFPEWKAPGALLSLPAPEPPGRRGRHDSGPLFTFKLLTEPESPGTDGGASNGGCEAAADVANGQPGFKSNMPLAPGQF
Experimental: as §1
The construct involved ligating the full-length containing EcoRI brainstem cDNA fragment from λ ZapII into the expression vector. Stable cell lines were selected as described above.
as §2

| Compound | melting point [°C] | Ki [1] [nM] | Ki [2] [nM] | Ki [3] [nM] |
| --- | --- | --- | --- | --- |
| COC(=O)C1(c2ccccc2)CCN(CCNC(=O)N2C(=O)OCC2c2ccc(F)c(F)c2)CC1 (stereo not drawn) (as salt: hydrochloride) [Example 21, 4-(3,4-Difluorophenyl)-2-oxo-oxazolidine-3-carboxylic Acid{2-[4-phenylpiperidine-4-(carboxylic Acid Methyl Ester)]ethyl}amide] | 80 to 85 |  |  |  |
| N#CC1(c2ccccc2)CCC(N2CCN(C(=O)N3C(=O)OCC3c3ccc(F)c(F)c3)CC2)CC1 (stereo not drawn) (as salt: HCl) [Example 34, 4-{4-[4-(3,4-Difluoro-phenyl)-2-oxo-oxazolidine-3-carbonyl]-piperazin-1-yl}-1-phenyl-cyclohexanecarbonitrile] | 148 to 151 |  |  |  |
| COC(=O)C1(c2ccccc2)CCN(CCNC(=O)N2C(=O)OCC2c2ccc(F)c(F)c2)CC1 (stereo not drawn) [Example 21, 4-(3,4-Difluorophenyl)-2-oxo-oxazolidine-3-carboxylic Acid{2-[4-phenylpiperidine-4-(carboxylic Acid Methyl Ester)]ethyl}amide] |  | 2460 | 21 | 891 |
| COc1ccccc1N1CCN(CCCCCN2C(=O)OCC2c2ccc(F)c(F)c2)CC1 (stereo not drawn) [Example 2, 4-(3,4-Difluorophenyl)-3-{5-[4-(2-methoxy-phenyl)-piperazin-1-yl]-pentyl}-oxazolidin-2-one] |  | 11 | 0.5 | 21 |
| Cl.N#CC1(c2ccccc2)CCN(CCCNC(=O)N2C(=O)OCC2(c2ccccc2)c2ccccc2)CC1 | 139 to 141 |  |  |  |
| O=C(NCCCN1CCC(c2ccccc2)(c2ccco2)CC1)N1C(=O)OCC1c1ccc(F)c(F)c1 (stereo not drawn) (as salt: HCl) | 149 to 151 |  |  |  |
| Cl.Cl.O=C1OCC(c2ccc(F)c(F)c2)N1C(=O)N1CCCC(CN2CCC(c3ccccn3)CC2)C1 (stereo not drawn) | 176 to 178 |  |  |  |
| CC(=O)OC1(c2ccccc2)CCN(CCCNC(=O)N2C(=O)OC(C)(C)C2c2ccc(F)c(F)c2)CC1.Cl (stereo not drawn) | 116 to 118 |  |  |  |
| COc1ccccc1N1CCN(CCCCCN2C(=O)OCC2c2ccc(F)c(F)c2)CC1 (stereo not drawn) (as salt: hydrochloride) [Example 2, 4-(3,4-Difluorophenyl)-3-{5-[4-(2-methoxy-phenyl)-piperazin-1-yl]-pentyl}-oxazolidin-2-one] | 174 to 178 |  |  |  |
| CC1(C)OC(=O)N(C(=O)NCC(F)CN2CCC(C#N)(c3ccccc3)CC2)C1c1ccc(F)c(F)c1.Cl (stereo not drawn) | 120 to 122 |  |  |  |
| CC1(C)OC(=O)N(C(=O)NCC(O)CN2CCC(C#N)(c3ccccc3)CC2)C1c1ccc(F)c(F)c1.Cl (stereo not drawn) [Example 28, N3-[3-(4-Cyano-4-phenylpiperidino)-2-hydroxypropyl]-4-(3,4-difluorophenyl)-5,5-dimethyl-2-oxo-oxazolidine-3-carboxamide Hydrochloride] | 135 to 137 | 3660 | 0.7 | 4010 |
